One assay relates to H358 cells. The experiment in a line: Antiproliferative activity against H358 cells (Cell Titer Glow, ultra-low attachment plate). It is filed as cell-based. Conditions: Homo sapiens, NCI-H358, 72 h, three days after addition of compound. The method, then: 2500 H358 cells were seeded in a 96-well ultra-low attachment plate (corning, 7007). After one day of growth, a serially diluted compound (a maximum concentration of 5 μM, 5-fold dilution, a total of five doses) was added. Three days after the addition of the compound, Cell Titer Glow (Promega, G9681) was added to evaluate pellet growth, and the IC50 value was calculated.
(Cellular ATP, detected with luciferase, serves as a proxy for viable cell number.)
Take `C=CC(=O)N1CC2(CCN(c3nc(N4CCC5(CCCN5C)CC4)nc4c(OCC(F)(F)F)c(-c5c(C)ccc6[nH]ncc56)c(C5CC5)cc34)CC2)C1` [Compound 79]: the half-inhibitory concentration (IC50) (in general, the point on the concentration scale where inhibition reaches its midpoint) was less than 300 nM.
Same read-out and setting: in the case of `C=CC(=O)N1CC2(CCN(c3nc(N4CCC5(CCCN5CCOC)CC4)nc4c(OCC(F)(F)F)c(-c5c(C)ccc6[nH]ncc56)c(C5CC5)cc34)CC2)C1` [Compound 80] it was 300 to 1000 nM; in that of `C=CC(=O)N1CC2(CCN(c3nc(N4CC5(CN(C)CCO5)C4)nc4c(OCC(F)(F)F)c(-c5c(C)ccc6[nH]ncc56)c(C5CC5)cc34)CC2)C1` [Compound 81], less than 300 nM.
Take `C=CC(=O)N1CC2(CCN(c3nc(N4CC5(CN(CCOC)CCO5)C4)nc4c(OCC(F)(F)F)c(-c5c(C)ccc6[nH]ncc56)c(C5CC5)cc34)CC2)C1` [Compound 82]: the IC50 is less than 300 nM.
Still for that read-out and setting: in the case of `C=CC(=O)N1CC2(CCN(c3nc(N4CCOC5(CN(C)C5)C4)nc4c(OCC(F)(F)F)c(-c5c(C)ccc6[nH]ncc56)c(C5CC5)cc34)CC2)C1` [Compound 83] it was 300 to 1000 nM.
The same measure, in the same setting: in the case of `C=CC(=O)N1CC2(CCN(c3nc(N4CCOC5(CN(CCOC)C5)C4)nc4c(OCC(F)(F)F)c(-c5c(C)ccc6[nH]ncc56)c(C5CC5)cc34)CC2)C1` [Compound 84] it was 300 to 1000 nM; in that of `C=CC(=O)N1CC2(CCN(c3nc(O[C@H]4C[C@@H](N(C)C)C4)nc4c(OCC(F)(F)F)c(-c5c(C)ccc6[nH]ncc56)c(C5CC5)cc34)CC2)C1` [Compound 85], less than 300 nM.
Still for that read-out and setting: the result for `C=CC(=O)N1CC2(CCN(c3nc(O[C@H]4C[C@H](N(C)C)C4)nc4c(OCC(F)(F)F)c(-c5c(C)ccc6[nH]ncc56)c(C5CC5)cc34)CC2)C1` [Compound 86] reads 300 to 1000 nM; that for `C=CC(=O)N1CC2(CCN(c3nc(O[C@H]4C[C@@H](N5CCC5)C4)nc4c(OCC(F)(F)F)c(-c5c(C)ccc6[nH]ncc56)c(C5CC5)cc34)CC2)C1` [Compound 87], less than 300 nM.
In the case of `C=CC(=O)N1CC2(CCN(c3nc(O[C@H]4C[C@H](N5CCC5)C4)nc4c(OCC(F)(F)F)c(-c5c(C)ccc6[nH]ncc56)c(C5CC5)cc34)CC2)C1` [Compound 88], the IC50 lay in the range of 300 to 1000 nM.
On to `C=CC(=O)N1CC2(CCN(c3nc(O[C@H]4C[C@@H](N5CCCC5)C4)nc4c(OCC(F)(F)F)c(-c5c(C)ccc6[nH]ncc56)c(C5CC5)cc34)CC2)C1` [Compound 89], for which the IC50 is less than 300 nM.
`C=CC(=O)N1CC2(CCN(c3nc(O[C@H]4C[C@H](N5CCCC5)C4)nc4c(OCC(F)(F)F)c(-c5c(C)ccc6[nH]ncc56)c(C5CC5)cc34)CC2)C1` [Compound 90] showed an IC50 of 300 to 1000 nM.
Same read-out and setting: the result for `C=CC(=O)N1CC2(CCN(c3nc(O[C@H]4C[C@@H](N5CCC(F)(F)C5)C4)nc4c(OCC(F)(F)F)c(-c5c(C)ccc6[nH]ncc56)c(C5CC5)cc34)CC2)C1` [Compound 91] reads less than 300 nM; that for `C=CC(=O)N1CC2(CCN(c3nc(O[C@H]4C[C@H](N5CCC(F)(F)C5)C4)nc4c(OCC(F)(F)F)c(-c5c(C)ccc6[nH]ncc56)c(C5CC5)cc34)CC2)C1` [Compound 92], more than 1000 nM.
In the case of `C=CC(=O)N1CC2(CCN(c3nc(O[C@H]4C[C@@H](N5CC6(CC6)C5)C4)nc4c(OCC(F)(F)F)c(-c5c(C)ccc6[nH]ncc56)c(C5CC5)cc34)CC2)C1` [Compound 93], the IC50 is less than 300 nM.
The same measure, in the same setting: in the case of `C=CC(=O)N1CC2(CCN(c3nc(O[C@H]4C[C@H](N5CC6(CC6)C5)C4)nc4c(OCC(F)(F)F)c(-c5c(C)ccc6[nH]ncc56)c(C5CC5)cc34)CC2)C1` [Compound 94] it was 300 to 1000 nM.
Same read-out and setting: in the case of `C=CC(=O)N1CC2(CCN(c3nc(O[C@H]4C[C@@H](N5CC6(CCC6)C5)C4)nc4c(OCC(F)(F)F)c(-c5c(C)ccc6[nH]ncc56)c(C5CC5)cc34)CC2)C1` [Compound 95] it was less than 300 nM.
The same measure, in the same setting: the result for `C=CC(=O)N1CC2(CCN(c3nc(O[C@H]4C[C@H](N5CC6(CCC6)C5)C4)nc4c(OCC(F)(F)F)c(-c5c(C)ccc6[nH]ncc56)c(C5CC5)cc34)CC2)C1` [Compound 96] reads 300 to 1000 nM.

The subject of the next assay is pERK level in H358 cells. The experiment in a line: pERK and ERK protein content assay in H358 cells (ELISA). As to conditions: Homo sapiens, NCI-H358, pERK/ERK ratio vs DMSO group, compound 1 μM, 24 h, read-out: Inhibition rate (%). Format: cell-based. The method, then:
H358 cells were seeded in a 24-well plate. After one day of growth, a test compound (at a concentration of 1 μM) was added. After 24 h of action of the compound, the cells were lysed, and the cell lysate was transferred to a 96-well ELISA plate. The levels of pERK and ERK in the lysate were measured using an ELISA kit (abcam 176660). The ratio of pERK to ERK was calculated and compared with that of the DMSO group, and the percentage of inhibition of pERK activity by the compound was calculated.
With `C=CC(=O)N1CC2(CCN(c3nc(N4CCC5(CCCN5C)CC4)nc4c(OCC(F)(F)F)c(-c5c(C)ccc6[nH]ncc56)c(C5CC5)cc34)CC2)C1` [Compound 79], the inhibition (as a rule, the drop in the measured response relative to a control, in per cent) at 1 µM was more than 90%.
For the molecule `C=CC(=O)N1CC2(CCN(c3nc(N4CCC5(CCCN5CCOC)CC4)nc4c(OCC(F)(F)F)c(-c5c(C)ccc6[nH]ncc56)c(C5CC5)cc34)CC2)C1` [Compound 80], the inhibition at 1 µM is 50 to 90%.
For `C=CC(=O)N1CC2(CCN(c3nc(N4CC5(CN(C)CCO5)C4)nc4c(OCC(F)(F)F)c(-c5c(C)ccc6[nH]ncc56)c(C5CC5)cc34)CC2)C1` [Compound 81], the inhibition at 1 µM was more than 90%.
The same measure, in the same setting: in the case of `C=CC(=O)N1CC2(CCN(c3nc(N4CC5(CN(CCOC)CCO5)C4)nc4c(OCC(F)(F)F)c(-c5c(C)ccc6[nH]ncc56)c(C5CC5)cc34)CC2)C1` [Compound 82] it was more than 90%; in that of `C=CC(=O)N1CC2(CCN(c3nc(N4CCOC5(CN(C)C5)C4)nc4c(OCC(F)(F)F)c(-c5c(C)ccc6[nH]ncc56)c(C5CC5)cc34)CC2)C1` [Compound 83], 50 to 90%; in that of `C=CC(=O)N1CC2(CCN(c3nc(N4CCOC5(CN(CCOC)C5)C4)nc4c(OCC(F)(F)F)c(-c5c(C)ccc6[nH]ncc56)c(C5CC5)cc34)CC2)C1` [Compound 84], 50 to 90%.
On the same count and under the same terms, the result for `C=CC(=O)N1CC2(CCN(c3nc(O[C@H]4C[C@@H](N(C)C)C4)nc4c(OCC(F)(F)F)c(-c5c(C)ccc6[nH]ncc56)c(C5CC5)cc34)CC2)C1` [Compound 85] reads more than 90%; that for `C=CC(=O)N1CC2(CCN(c3nc(O[C@H]4C[C@H](N(C)C)C4)nc4c(OCC(F)(F)F)c(-c5c(C)ccc6[nH]ncc56)c(C5CC5)cc34)CC2)C1` [Compound 86], 50 to 90%.
On the same count and under the same terms, in the case of `C=CC(=O)N1CC2(CCN(c3nc(O[C@H]4C[C@@H](N5CCC5)C4)nc4c(OCC(F)(F)F)c(-c5c(C)ccc6[nH]ncc56)c(C5CC5)cc34)CC2)C1` [Compound 87] it was more than 90%; in that of `C=CC(=O)N1CC2(CCN(c3nc(O[C@H]4C[C@H](N5CCC5)C4)nc4c(OCC(F)(F)F)c(-c5c(C)ccc6[nH]ncc56)c(C5CC5)cc34)CC2)C1` [Compound 88], 50 to 90%; in that of `C=CC(=O)N1CC2(CCN(c3nc(O[C@H]4C[C@@H](N5CCCC5)C4)nc4c(OCC(F)(F)F)c(-c5c(C)ccc6[nH]ncc56)c(C5CC5)cc34)CC2)C1` [Compound 89], more than 90%.
As to `C=CC(=O)N1CC2(CCN(c3nc(O[C@H]4C[C@H](N5CCCC5)C4)nc4c(OCC(F)(F)F)c(-c5c(C)ccc6[nH]ncc56)c(C5CC5)cc34)CC2)C1` [Compound 90], the inhibition at 1 µM lay within 50 to 90%.
Same read-out and setting: in the case of `C=CC(=O)N1CC2(CCN(c3nc(O[C@H]4C[C@@H](N5CCC(F)(F)C5)C4)nc4c(OCC(F)(F)F)c(-c5c(C)ccc6[nH]ncc56)c(C5CC5)cc34)CC2)C1` [Compound 91] it was more than 90%; in that of `C=CC(=O)N1CC2(CCN(c3nc(O[C@H]4C[C@H](N5CCC(F)(F)C5)C4)nc4c(OCC(F)(F)F)c(-c5c(C)ccc6[nH]ncc56)c(C5CC5)cc34)CC2)C1` [Compound 92], 50 to 90%.
Turning to `C=CC(=O)N1CC2(CCN(c3nc(O[C@H]4C[C@@H](N5CC6(CC6)C5)C4)nc4c(OCC(F)(F)F)c(-c5c(C)ccc6[nH]ncc56)c(C5CC5)cc34)CC2)C1` [Compound 93], the inhibition at 1 µM is more than 90%.
The same measure, in the same setting: the result for `C=CC(=O)N1CC2(CCN(c3nc(O[C@H]4C[C@H](N5CC6(CC6)C5)C4)nc4c(OCC(F)(F)F)c(-c5c(C)ccc6[nH]ncc56)c(C5CC5)cc34)CC2)C1` [Compound 94] reads 50 to 90%.
As for `C=CC(=O)N1CC2(CCN(c3nc(O[C@H]4C[C@@H](N5CC6(CCC6)C5)C4)nc4c(OCC(F)(F)F)c(-c5c(C)ccc6[nH]ncc56)c(C5CC5)cc34)CC2)C1` [Compound 95], the inhibition at 1 µM is more than 90%.
Same read-out and setting: in the case of `C=CC(=O)N1CC2(CCN(c3nc(O[C@H]4C[C@H](N5CC6(CCC6)C5)C4)nc4c(OCC(F)(F)F)c(-c5c(C)ccc6[nH]ncc56)c(C5CC5)cc34)CC2)C1` [Compound 96] it was more than 90%.

Source of the values: patent US12391692B2, “Spiro ring-containing quinazoline compound” (WIGEN BIOMEDICINE TECHNOLOGY (SHANGHAI) CO., LTD., priority 2020, dated 2025).
